Patent US20260151504A1, “SYNTHETIC CELLS COMPRISING TNF-RELATED APOPTOSIS-INDUCING LIGAND (TRAIL) AND METHODS OF USING THE SAME” (Slingshot Biosciences, Inc., priority 2023, published 2026)

Assays:
[1] = tested on: Jeko-1 tumor cells; assay: Annexin V / 7-AAD flow cytometry of Jeko-1 tumor cells treated with TRAIL delivery systems; assay type: cell-based; settings: camptothecin 100 nM, percentage of cells
Description: (§1) Briefly, 100K live Jeko-1 or Jurkat cells were plated in RPMI media containing 10% Fetal bovine serum and 1% PenStrep in 100 μL volume.
(§2) Synthetic cytotoxic cells and equivalent total molecules of soluble TRAIL were plated 8 hours post seeding of tumor cells in 100 μL total volume. Amount of soluble TRAIL per well to match the amount of microsphere or bead-bound TRAIL was calculated as follows. Assuming 150K TRAIL molecules per microsphere/bead and 1e^6 microsphere/bead per well, 1.5e^11 soluble TRAIL molecules per well were used, which was calculated to be equivalent to 23 ng soluble TRAIL per well.
(§3) Twenty-four and forty-eight hours post incubation, cells were harvested and stained with Annexin V and 7-AAD. Anti-CD19 and Anti-CD3 antibodies were used to separate Jeko-1 cells from beads and Jurkat cells from beads, respectively. While Jeko-1 cells are CD19-expressing B-cells that are TRAIL-sensitive, Jurkat cells are CD3-expressing T cells that have low-moderate sensitivity to TRAIL. Determination of stage of cell death and % apoptotic cells were determined from the gating strategy outlined in FIG. 8. Samples were plated in duplicates and all sample acquisition was performed on the Cytoflex Beckman Coulter Flow Cytometer 24 hours and 48 hours post treatment of tumor cells with treatment conditions. Data analysis was further processed on FlowJo™ v10 software.

[2] = tested on: Jurkat tumor cells; assay: Annexin V / 7-AAD flow cytometry of Jurkat tumor cells treated with TRAIL delivery systems; assay type: cell-based; settings: camptothecin 100 nM, percentage of cells
Description: as §1, §2, §3

[3] = Table 4A, Jeko-1, 24 Hrs., TRAIL equivalent to 1.5e^11 molecules per well

## CC[C@@]1(O)C(=O)OCc2c1cc1n(c2=O)Cc2cc3ccccc3nc2-1 [Camptothecin, camptothecin]
[1]; [3]
  Early Stage Apoptotic (7-AAD−/Annexin V+): 56.5
  Late Stage Apoptotic (7-AAD+/Annexin V+): 39.5
  Live Cells (7-AAD−/Annexin V−): 3.88
  Necrotic (7-AAD+/Annexin V−): 0.077
[1]; Table 4B, Jeko-1, 48 Hrs.
  Early Stage Apoptotic (7-AAD−/Annexin V+): 7.64
  Late Stage Apoptotic (7-AAD+/Annexin V+): 91.0
  Live Cells (7-AAD−/Annexin V−): 1.19
  Necrotic (7-AAD+/Annexin V−): 0.13
[2]; Table 5A, 24 Hrs.
  Early Stage Apoptotic (7-AAD−/Annexin V+): 59.8
  Late Stage Apoptotic (7-AAD+/Annexin V+): 26.9
  Live Cells (7-AAD−/Annexin V−): 13.1
  Necrotic (7-AAD+/Annexin V−): 0.13
[2]; Table 5B, 48 Hrs.
  Early Stage Apoptotic (7-AAD−/Annexin V+): 25.5
  Late Stage Apoptotic (7-AAD+/Annexin V+): 69.8
  Live Cells (7-AAD−/Annexin V−): 3.36
  Necrotic (7-AAD+/Annexin V−): 1.33
